Assays:
Assay in all cases: relative viability (nuclei count vs DMSO), 5 days (fraction); higher = more cells survive
[1] = compound: CC(C)N(CCCNC(=O)Nc1ccc(C(C)(C)C)cc1)C[C@H]1O[C@@H](n2ccc3c(N)ncnc32)[C@H](O)[C@@H]1O + CC(=O)c1c(C)c2cnc(Nc3ccc(N4CCNCC4)cn3)nc2n(C2CCCC2)c1=O [Palbociclib] (partner 0.5 µM)
How it was run: (§1)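 Lung cancer cell lines in 1536-well plates got either a single drug or a fixed anchor-drug dose together with five library-drug doses (not always all listed) in √10 steps, by pin tool, on the day after seeding. Nuclei were counted after 5 days, and relative viability is the treated-to-vehicle ratio of nuclei counts. Values are medians of duplicate plates.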

Shikonin + Linsitinib = compound: CC(C)=CC[C@@H](O)C1=CC(=O)c2c(O)ccc(O)c2C1=O [Shikonin] + C[C@]1(O)C[C@@H](c2nc(-c3ccc4ccc(-c5ccccc5)nc4c3)c3c(N)nccn32)C1 [Linsitinib] (partner 1 µM)
How it was run: as §1

Shikonin + Bortezomib = compound: CC(C)=CC[C@@H](O)C1=CC(=O)c2c(O)ccc(O)c2C1=O [Shikonin] + CC(C)C[C@H](NC(=O)[C@H](Cc1ccccc1)NC(=O)c1cnccn1)B(O)O [Bortezomib] (partner 0.002 µM)
How it was run: as §1

[2] = compound: CC(C)N(CCCNC(=O)Nc1ccc(C(C)(C)C)cc1)C[C@H]1O[C@@H](n2ccc3c(N)ncnc32)[C@H](O)[C@@H]1O + Cc1nc(Nc2ncc(C(=O)Nc3c(C)cccc3Cl)s2)cc(N2CCN(CCO)CC2)n1 [Dasatinib] (partner 0.075 µM)
How it was run: as §1

Row | Cell Line | relative viability ([1]; first compound 0.08 µM) | relative viability ([1]; first compound 0.253 µM) | relative viability ([1]; first compound 2.53 µM) | relative viability ([1]; first compound 8 µM) | relative viability (Shikonin + Linsitinib; first compound 0.01 µM) | relative viability (Shikonin + Linsitinib; first compound 0.1 µM) | relative viability (Shikonin + Linsitinib; first compound 0.3162 µM) | relative viability (Shikonin + Linsitinib; first compound 1 µM) | relative viability (Shikonin + Bortezomib; first compound 0.01 µM) | relative viability (Shikonin + Bortezomib; first compound 0.1 µM) | relative viability (Shikonin + Bortezomib; first compound 0.3162 µM) | relative viability (Shikonin + Bortezomib; first compound 1 µM) | relative viability ([2]; first compound 0.08 µM) | relative viability ([2]; first compound 0.253 µM) | relative viability ([2]; first compound 0.8 µM) | relative viability ([2]; first compound 2.53 µM) | relative viability ([2]; first compound 8 µM) | relative viability ([1]; first compound 0.8 µM)
1 | 201T | 0.338 | 0.352 | 0.328 | 0.357 | 1.01 | 1.04 | 1.08 | 1.03 | 1.12 | 1.23 | 1.14 | 1.15 | 0.562 | 0.548 | 0.505 | 0.565 | 0.593 | 
2 | A549 |  |  |  |  | 0.59 | 0.485 | 0.728 | 0.637 |  |  |  |  |  |  |  |  |  | 
3 | A-427 | 0.525 | 0.546 | 0.578 | 0.515 | 1.11 | 1.21 | 1.19 | 1.14 | 1.07 | 1.17 | 0.979 | 1.05 | 0.671 | 0.644 | 0.641 | 0.61 | 0.594 | 0.556
4 | ABC-1 | 0.665 | 0.868 | 0.763 | 0.655 | 0.968 | 0.754 | 0.689 | 0.647 | 0.279 | 0.31 | 0.274 | 0.254 | 0.62 | 0.599 |  | 0.712 | 0.524 | 
5 | BEN | 0.446 | 0.509 | 0.503 | 0.445 | 1.07 | 0.962 | 1.12 | 1.07 | 0.826 | 1.04 | 0.748 | 0.849 | 0.29 | 0.347 | 0.312 | 0.314 | 0.312 | 0.453
6 | CAL-12T | 0.418 | 0.341 | 0.445 | 0.38 | 0.754 | 0.815 | 0.715 | 0.767 | 0.898 | 1.05 | 1.01 | 1.17 | 0.405 | 0.398 | 0.386 | 0.453 | 0.402 | 0.488
7 | COR-L23 | 0.302 | 0.296 | 0.34 | 0.304 | 0.99 | 0.865 | 0.917 | 0.797 | 1.1 | 1.11 | 1.18 | 0.8 | 0.499 | 0.5 | 0.457 | 0.474 | 0.442 | 0.265
8 | COR-L 105 | 0.402 | 0.397 | 0.434 | 0.378 | 1.1 | 0.971 | 0.845 | 0.655 | 0.88 | 0.887 | 0.751 | 0.603 | 0.298 | 0.347 | 0.308 | 0.31 | 0.391 | 0.414
9 | Calu-6 |  |  |  |  | 0.984 | 1.08 | 0.984 | 0.972 | 1.1 | 1.2 | 0.878 | 0.674 |  |  |  |  |  | 
10 | ChaGo-K-1 | 0.887 | 0.96 | 0.928 | 0.95 |  |  |  |  | 0.957 | 1.35 | 0.911 | 1.53 | 0.532 | 0.672 | 0.556 | 0.552 | 0.497 | 0.959
11 | EBC-1 |  |  |  |  | 0.984 | 0.857 | 0.727 | 1.02 | 0.604 | 0.48 | 0.644 | 0.526 |  |  |  |  |  | 
12 | EKVX | 0.418 | 0.346 | 0.433 | 0.371 | 1.04 | 0.962 | 1.29 | 1.09 | 0.995 | 1.81 | 1.28 | 1.18 | 0.571 | 0.502 | 0.509 | 0.517 | 0.524 | 0.41
13 | EMC-BAC-2 | 0.507 | 0.499 | 0.502 | 0.485 | 0.8 | 0.836 | 0.839 | 0.855 | 1.05 | 1.18 | 1.21 | 1.07 | 0.349 | 0.36 | 0.297 | 0.359 | 0.37 | 0.512
14 | EPLC-272H | 0.365 | 0.342 | 0.36 | 0.398 | 1.18 | 1.32 | 1.2 | 1.17 | 0.76 | 0.923 | 0.957 | 0.923 | 0.354 | 0.394 | 0.508 | 0.373 | 0.439 | 0.366
15 | H3255 | 0.328 | 0.33 | 0.299 | 0.316 | 0.999 | 1.05 | 1.06 | 1.08 | 0.755 | 1.09 | 0.92 | 1.03 | 0.507 | 0.354 | 0.434 | 0.282 | 0.367 | 0.308
16 | HARA | 0.249 | 0.223 | 0.208 | 0.26 | 1.1 | 0.925 | 1.01 | 0.925 | 1.16 | 1.24 | 1.16 | 1.24 | 0.27 | 0.282 | 0.278 | 0.22 | 0.244 | 0.311
17 | HCC-15 | 0.759 | 0.709 | 0.712 | 0.724 | 0.99 | 0.906 | 0.874 | 0.935 | 1.16 | 1.15 | 1.08 | 1.22 | 0.596 | 0.684 | 0.574 | 0.581 | 0.591 | 0.802
